Experimental data from patent US20200024278A1, “COMPOSITION COMPRISING ANTIBIOTIC COMPOUND AND AN HETEROCYCLIC COMPOUND AND THEIR USE IN PREVENTING OR TREATING BACTERIAL INFECTIONS” (MUTABILIS, priority 2016, published 2020).

Assays:
Test in all cases: MIC, broth microdilution (CLSI), substance alone or ATB combined with compound at 4 or 8 μg/mL
ECO 190317 = type: cell-based, E. coli; details: ECO 190317
Procedure, shortened: (§1)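 Growth inhibition endpoint, read visually after 16-20 h at 35° C in ambient air. Cation-adjusted Mueller-Hinton broth, inoculum 5·10^5 CFU/mL, CLSI M7-A7 protocol.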

ECO UFR39 = type: cell-based, E. coli; details: ECO UFR39
Procedure, shortened: as §1

KPN 6299 = type: cell-based, K. pneumoniae
Procedure, shortened: as §1

KPN BAA-1898 = type: cell-based, K. pneumoniae; details: KPN BAA-1898
Procedure, shortened: as §1

KPN UFR42 = type: cell-based, K. pneumoniae; details: KPN UFR42
Procedure, shortened: as §1

ECL P99 = type: cell-based, E. cloacae; details: ECL P99
Procedure, shortened: as §1

CN(C)c1cc(NC(=O)CNC(C)(C)C)c(O)c2c1C[C@H]1C[C@H]3[C@H](N(C)C)C(O)=C(C(N)=O)C(=O)[C@@]3(O)C(O)=C1C2=O [TGC]
MIC ATB alone (ECO 190317; antibiotic alone): 0.25 µg/mL | MIC ATB combined with Example 1 @8 μg/ml (ECO 190317; with Example 1 @8 μg/ml): <0.031 µg/mL | MIC ATB combined with Example 1 @8 μg/ml (ECO 190317; with Example 1 at 8 μg/ml): <0.031 µg/mL | MIC ATB combined with Example 7 @8 μgml (ECO 190317; with Example 7 at 8 μg/ml): <0.031 µg/mL | MIC ATB combined with Example 9 @4 μg/ml (ECO 190317; with Example 9 @4 μg/ml): <0.031 µg/mL | MIC ATB combined with Example 9 @4 μg/ml (ECO 190317; with Example 9 at 4 μg/ml): <0.031 µg/mL | MIC ATB combined with Example 11 @8 μg/ml (ECO 190317; with Example 11 at 8 μg/ml): <0.031 µg/mL | MIC ATB combined with Example 12 @8 μg/ml (ECO 190317; with Example 12 at 8 μg/ml): <0.031 µg/mL | MIC ATB combined with Example 13 @8 μg/ml (ECO 190317; with Example 13 at 8 μg/ml): <0.031 µg/mL | MIC ATB combined with Example 14 @8 μg/ml (ECO 190317; with Example 14 at 8 μg/ml): <0.031 µg/mL | MIC ATB combined with Example 15 @4 μgml (ECO 190317; with Example 15 at 4 μg/ml): <0.031 µg/mL | MIC ATB combined with Example 16 @4 μg/ml (ECO 190317; with Example 16 at 4 μg/ml): <0.031 µg/mL | MIC ATB alone (ECO UFR39; antibiotic alone): 0.5 µg/mL | MIC ATB combined with Example 1 @8 μg/ml (ECO UFR39; with Example 1 @8 μg/ml): <0.031 µg/mL | MIC ATB combined with Example 1 @8 μg/ml (ECO UFR39; with Example 1 at 8 μg/ml): <0.031 µg/mL | MIC ATB combined with Example 7 @8 μgml (ECO UFR39; with Example 7 at 8 μg/ml): <0.031 µg/mL | MIC ATB combined with Example 9 @4 μg/ml (ECO UFR39; with Example 9 @4 μg/ml): <0.031 µg/mL | MIC ATB combined with Example 9 @4 μg/ml (ECO UFR39; with Example 9 at 4 μg/ml): <0.031 µg/mL | MIC ATB combined with Example 11 @8 μg/ml (ECO UFR39; with Example 11 at 8 μg/ml): <0.031 µg/mL | MIC ATB combined with Example 12 @8 μg/ml (ECO UFR39; with Example 12 at 8 μg/ml): <0.031 µg/mL | MIC ATB combined with Example 13 @8 μg/ml (ECO UFR39; with Example 13 at 8 μg/ml): <0.031 µg/mL | MIC ATB combined with Example 14 @8 μg/ml (ECO UFR39; with Example 14 at 8 μg/ml): <0.031 µg/mL | MIC ATB combined with Example 15 @4 μgml (ECO UFR39; with Example 15 at 4 μg/ml): <0.031 µg/mL | MIC ATB combined with Example 16 @4 μg/ml (ECO UFR39; with Example 16 at 4 μg/ml): <0.031 µg/mL | MIC ATB alone (KPN 6299; antibiotic alone): 1 µg/mL | MIC ATB combined with Example 1 @8 μg/ml (KPN 6299; with Example 1 @8 μg/ml): 1 µg/mL | MIC ATB combined with Example 1 @8 μg/ml (KPN 6299; with Example 1 at 8 μg/ml): 1 µg/mL | MIC ATB combined with Example 7 @8 μgml (KPN 6299; with Example 7 at 8 μg/ml): 1 µg/mL | MIC ATB combined with Example 9 @4 μg/ml (KPN 6299; with Example 9 @4 μg/ml): 0.063 µg/mL | MIC ATB combined with Example 9 @4 μg/ml (KPN 6299; with Example 9 at 4 μg/ml): 0.063 µg/mL | MIC ATB combined with Example 11 @8 μg/ml (KPN 6299; with Example 11 at 8 μg/ml): <0.031 µg/mL | MIC ATB combined with Example 12 @8 μg/ml (KPN 6299; with Example 12 at 8 μg/ml): <0.031 µg/mL | MIC ATB combined with Example 13 @8 μg/ml (KPN 6299; with Example 13 at 8 μg/ml): 0.5 µg/mL | MIC ATB combined with Example 14 @8 μg/ml (KPN 6299; with Example 14 at 8 μg/ml): <0.031 µg/mL | MIC ATB combined with Example 15 @4 μgml (KPN 6299; with Example 15 at 4 μg/ml): <0.031 µg/mL | MIC ATB combined with Example 16 @4 μg/ml (KPN 6299; with Example 16 at 4 μg/ml): <0.031 µg/mL | MIC ATB alone (KPN BAA-1898; antibiotic alone): 1 µg/mL | MIC ATB combined with Example 1 @8 μg/ml (KPN BAA-1898; with Example 1 @8 μg/ml): 1 µg/mL | MIC ATB combined with Example 1 @8 μg/ml (KPN BAA-1898; with Example 1 at 8 μg/ml): 1 µg/mL | MIC ATB combined with Example 7 @8 μgml (KPN BAA-1898; with Example 7 at 8 μg/ml): 1 µg/mL | MIC ATB combined with Example 9 @4 μg/ml (KPN BAA-1898; with Example 9 @4 μg/ml): <0.031 µg/mL | MIC ATB combined with Example 9 @4 μg/ml (KPN BAA-1898; with Example 9 at 4 μg/ml): <0.031 µg/mL | MIC ATB combined with Example 11 @8 μg/ml (KPN BAA-1898; with Example 11 at 8 μg/ml): <0.031 µg/mL | MIC ATB combined with Example 12 @8 μg/ml (KPN BAA-1898; with Example 12 at 8 μg/ml): <0.031 µg/mL | MIC ATB combined with Example 13 @8 μg/ml (KPN BAA-1898; with Example 13 at 8 μg/ml): 1 µg/mL | MIC ATB combined with Example 14 @8 μg/ml (KPN BAA-1898; with Example 14 at 8 μg/ml): <0.031 µg/mL | MIC ATB combined with Example 15 @4 μgml (KPN BAA-1898; with Example 15 at 4 μg/ml): <0.031 µg/mL | MIC ATB combined with Example 16 @4 μg/ml (KPN BAA-1898; with Example 16 at 4 μg/ml): <0.031 µg/mL | MIC ATB alone (KPN UFR42; antibiotic alone): 2 µg/mL | MIC ATB combined with Example 1 @8 μg/ml (KPN UFR42; with Example 1 @8 μg/ml): 2 µg/mL | MIC ATB combined with Example 1 @8 μg/ml (KPN UFR42; with Example 1 at 8 μg/ml): 2 µg/mL | MIC ATB combined with Example 7 @8 μgml (KPN UFR42; with Example 7 at 8 μg/ml): 0.5 µg/mL | MIC ATB combined with Example 9 @4 μg/ml (KPN UFR42; with Example 9 @4 μg/ml): 0.25 µg/mL | MIC ATB combined with Example 9 @4 μg/ml (KPN UFR42; with Example 9 at 4 μg/ml): 0.25 µg/mL | MIC ATB combined with Example 11 @8 μg/ml (KPN UFR42; with Example 11 at 8 μg/ml): <0.031 µg/mL | MIC ATB combined with Example 12 @8 μg/ml (KPN UFR42; with Example 12 at 8 μg/ml): <0.031 µg/mL | MIC ATB combined with Example 13 @8 μg/ml (KPN UFR42; with Example 13 at 8 μg/ml): 2 µg/mL | MIC ATB combined with Example 14 @8 μg/ml (KPN UFR42; with Example 14 at 8 μg/ml): <0.031 µg/mL | MIC ATB combined with Example 15 @4 μgml (KPN UFR42; with Example 15 at 4 μg/ml): <0.031 µg/mL | MIC ATB combined with Example 16 @4 μg/ml (KPN UFR42; with Example 16 at 4 μg/ml): <0.031 µg/mL | MIC ATB alone (ECL P99; antibiotic alone): 0.5 µg/mL | MIC ATB combined with Example 1 @8 μg/ml (ECL P99; with Example 1 @8 μg/ml): <0.031 µg/mL | MIC ATB combined with Example 1 @8 μg/ml (ECL P99; with Example 1 at 8 μg/ml): <0.031 µg/mL | MIC ATB combined with Example 7 @8 μgml (ECL P99; with Example 7 at 8 μg/ml): 0.25 µg/mL | MIC ATB combined with Example 9 @4 μg/ml (ECL P99; with Example 9 @4 μg/ml): <0.031 µg/mL | MIC ATB combined with Example 9 @4 μg/ml (ECL P99; with Example 9 at 4 μg/ml): <0.031 µg/mL
